Values of other authors in the PKSmart pharmacokinetics tables (Seal et al. 2025).

Experiments:
[1] = Lombardo, Berellini, Obach 2018, Drug Metab Dispos 46:1466, doi 10.1124/dmd.118.082966; details: human; for MRT / Vd / clearance / half-life: in vivo, iv; for fraction unbound: plasma
[2] = Lombardo et al. 2013, J Clin Pharmacol 53:178, doi 10.1177/0091270012440282; details: for Vd / clearance: in vivo, iv; for fraction unbound: plasma

Compound	MRT [1] [h]	Vd [1] [L/kg]	clearance [1] [mL/min/kg]	half-life [1] [h]	Vd ([2]; rat) [L/kg]	clearance ([2]; rat) [mL/min/kg]	fraction unbound ([2]; rat)	fraction unbound [1]	Vd ([2]; dog) [L/kg]	clearance ([2]; dog) [mL/min/kg]	fraction unbound ([2]; dog)	Vd ([2]; monkey) [L/kg]	clearance ([2]; monkey) [mL/min/kg]	fraction unbound ([2]; monkey)
CCCC1O[C@@H]2C[C@H]3[C@@H]4CC=C5CC(=O)C=C[C@]5(C)[C@H]4[C@@H](O)C[C@]3(C)[C@]2(C(=O)CO)O1 (stereo not given in full)	3.2	3.9	20	2.8	29.2	72	0.039							
CON=C(C(=O)NC1C(=O)N2C(C(=O)[O-])=C(C[n+]3cccc4c3CCC4)CS[C@H]12)c1csc(N)n1 (stereo not given in full)	2.1	0.24	1.9	1.7	0.3	9.5		0.9	0.22	3.2	0.542	0.27	2.4	0.446
COc1ccc(Cl)cc1[C@]1(F)C(=O)Nc2cc(C(F)(F)F)ccc21	11	10	15	37	6.3	43		0.0038	4.06	3.5	0.0067			
CON=C(C(=O)NC1C(=O)N2C(C(=O)O)=C(COC(N)=O)CS[C@H]12)c1ccco1 (stereo not given in full)	1.1	0.15	2.2	1.1					1.5	5				
O=c1c(O)c(-c2ccc(O)c(O)c2)oc2cc(O)cc(O)c12	0.2	0.12	11	0.6	0.28	116		0.009						
C#C[C@]1(OS(=O)(=O)O)CC[C@H]2[C@@H]3CCc4cc(O)ccc4[C@H]3CC[C@@]21C	7.8	0.61	1.3	9.3								8.7	13	
C[C@@H]1CCC[C@H](C)N1CCCC(O)(c1ccccc1)c1ccccn1 (stereo not given in full)	13	1.4	1.8	8.4	2.6	62	0.49		2.1	8.3	0.492	0.87	4.92	0.42
CN(Cc1cnc2nc(N)nc(N)c2n1)c1ccc(C(=O)NC(CCC(=O)O)C(=O)O)cc1 (stereo not given)	3.4	0.43	2.1				0.68							
C[C@]12C=CC(=O)C=C1CC[C@@H]1C2C(=O)C[C@@]2(C)[C@H]1CC[C@]2(O)C(=O)CO (stereo not given in full)	3.8	0.57		2.9	1.3	155	0.41		2.3	24.9	0.5	1.7	9.8	0.261
CCC(C)C(=O)O[C@H]1C[C@H](O)C=C2C=C[C@H](C)[C@H](CC[C@@H](O)C[C@@H](O)CC(=O)O)[C@H]21 (stereo not given in full)		0.46	14	0.78	0.19	36	0.33							
CC(=N)N1CC[C@H](SC2=C(C(=O)O)N3C(=O)C([C@@H](C)O)[C@H]3C2)C1 (stereo not given in full)	1.2	0.19	2.6	0.96	0.2	27.7	0.95		0.21	4.85	0.95	0.3	6.52	0.93
COC(=O)C1=C(C)NC(C)=C(C(=O)OCCN(C)Cc2ccccc2)C1c1cccc([N+](=O)[O-])c1 (stereo not given)	1.5	1		4.1	1.9		0.084		2.39		0.062	1.23		0.06
Cc1ccc(C(=O)c2cc(O)c(O)c([N+](=O)[O-])c2)cc1	1.1	0.12	1.9	1.1	0.21	8.8		0.0012	0.16	1.9				
C#C[C@]1(O)CC[C@H]2[C@@H]3CCc4cc(OS(=O)(=O)O)ccc4[C@H]3CC[C@@]21C	8.2	2.3	4.7	8.4				0.011				21	39	
CC(C)N(CCC(C(N)=O)(c1ccccc1)c1ccccn1)C(C)C (stereo not given)	9.6	0.52	0.9	7		34		0.16	1.27	9.87				
C[C@H](Cn1cnc2c(N)ncnc21)OCP(=O)(O)O	3.8	0.83	3.1	5.8				0.93	0.9	5.9			16.2	
CC(=O)Oc1ccccc1C(=O)O	0.3	0.22	12	0.26	0.4	87		0.68						
COc1nc(N)nc2c1ncn2[C@@H]1O[C@H](CO)[C@@H](O)[C@@H]1O	1	4.9	81	0.5								1.3	42	
Cc1cccc(Nc2ccncc2S(=O)(=O)NC(=O)NC(C)C)c1	6.6	0.21	0.53	5.1	0.23	3.74	0.06		0.08	0.14	0.02			
C#CCCCC(=O)c1cc(C(C)(C)C)c(O)c(C(C)(C)C)c1	22.3	12	8.9	50.7	7.9	41.4			24.8	30.9		10.4	14.9	
COC1CC(OC2C(C)C(=O)OC(C)C(C)C(O)C(C)C(=O)C3(CO3)CC(C)C(OC3OC(C)CC(N(C)C)C3O)C2C)OC(C)C1O (stereo not given)					6.8	51	0.46		1.6	12	0.13			
CCC[C@@H]1CC(C(=O)N[C@@H]([C@H]2O[C@H](SC)[C@H](O)[C@@H](O)[C@H]2O)[C@H](C)Cl)N(C)C1 (stereo not given in full)							0.325				0.035			

Compound	MRT [1] [h]	Vd [1] [L/kg]	clearance [1] [mL/min/kg]	half-life [1] [h]	Vd ([2]; rat) [L/kg]	clearance ([2]; rat) [mL/min/kg]	fraction unbound ([2]; rat)	fraction unbound [1]	Vd ([2]; dog) [L/kg]	clearance ([2]; dog) [mL/min/kg]	fraction unbound ([2]; dog)	Vd ([2]; monkey) [L/kg]	clearance ([2]; monkey) [mL/min/kg]	fraction unbound ([2]; monkey)
Oc1ccc2c(c1)[C@]13CCCC[C@@]1(O)[C@H](C2)N(CC1CCC1)CC3					4.8	91.2	0.34		8.4	58	0.369			
CN1C2CCC[C@@H]1CC(NC(=O)c1nn(C)c3ccccc13)C2 (stereo not given in full)					16.7	824								
COC(=O)Nc1nc2ccc(C(=O)c3ccccc3)cc2[nH]1					2.6	9.8								
CC(C)(N)CC(=O)NC1CCc2ccccc2N(Cc2ccc(-c3ccccc3-c3nn[nH]n3)cc2)C1=O (stereo not given)					0.15	2.7	0.02		0.34	19.3	0.86	0.16	5.7	0.06
CCCc1nn(C)c2c(=O)nc(-c3cc(S(=O)(=O)N4CCN(C)CC4)ccc3OCC)[nH]c12					1.1	48			5.2	12	0.14			
COCCc1ccc(OCC(O)CNC(C)C)cc1 (stereo not given)					6.3	87.2	0.69				0.756	14	21.9	0.825
COc1ccccc1Oc1c(NS(=O)(=O)c2ccc(C)cn2)nc(-c2ccnc(-c3nn[nH]n3)c2)nc1OCCO					0.32	11.7			0.11	2.89		0.36	19	
O=C(c1ccccc1)c1ccc2n1CCC2C(=O)O (stereo not given)						3.6			0.33	1.25				
[H]/N=C(\N)c1ccc(OCCCCCOc2ccc(/C(N)=N/[H])cc2)cc1					10.1	112	0.4		6.6	60.6	0.266			
COc1ccc(-c2nc3ccc(C4=NNC(=O)CC4C)cc3[nH]2)cc1 (stereo not given)					3.5									
COc1ccc2nc([S+](O)Cc3ncc(C)c(OC)c3C)[n-]c2c1 (stereo not given)					0.44	53	0.19							
CN[C@@H]1C[C@H]2O[C@@](C)([C@@H]1OC)n1c3ccccc3c3c4c(c5c6ccccc6n2c5c31)C(=O)N[C@@H]4O					16.7	65			6.09	10.2	0.0074			
Cn1nnc2c(C(N)=O)ncn2c1=O					0.92	9.8								
C[C@@H](O)C1C(=O)N2C(C(=O)O)=C(SCC/N=C/N)C[C@H]12 (stereo not given in full)						14.5	1			4.3	1		5.7	0.975
O=C(O)CCCCO/N=C(/c1cccnc1)c1cccc(C(F)(F)F)c1					0.78	2	0.05							
Cc1cccc([C@H](C)c2cnc[nH]2)c1C					3.24	59.4								
CCCCC[C@H](O)CC[C@@H]1[C@H]2Cc3cccc(OCC(=O)O)c3C[C@H]2C[C@H]1O									0.11	35.8				
O=C(OC1CC2CC3C[C@@H](C1)N2CC3=O)c1c[nH]c2ccccc12 (stereo not given in full)					26	72				27	0.5		77	0.5
CC1C(=O)O[C@H]2C[C@@]34[C@H]5C[C@@H](C(C)(C)C)[C@@]36C(O)C(=O)O[C@H]6O[C@@]4(C(=O)O5)[C@@]12O (stereo not given in full)					4.3	65								
CCN[C@@H]1C[C@H](N)[C@@H](OC2OC(CN)=CCC2N)[C@H](O)[C@H]1O[C@H]1OC[C@](C)(O)[C@H](NC)[C@H]1O (stereo not given in full)									0.34	3.4				
[H]/N=C(\N)c1ccc(CNC(=O)C2CCN2C(=O)C(NCC(=O)O)C2CCCCC2)cc1 (stereo not given)					0.39	16.9	0.9		0.36	7	0.89			
